Laboratory results: PubChem BioAssay AID248 (DTP/NCI, 2004)
Several values for one entry are separate records, joined by “and”; a condition that tells them apart may be missing. Equal entries are not always repeated. Inconclusive results and toxic doses are left out.

Tested on: L1210 leukemia ip in BDF1 mice, survival T/C
Assay: NCI In Vivo Anticancer Drug Screen. Data for tumor model L1210 Leukemia (intraperitoneal) in B6D2F1 (BDF1) mice
Details: endpoint: mean survival time, higher = longer survival
Outline: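 Transplanted-tumor mice were given test agent; controls received vehicle only. Survival readings from the two groups were divided (treated over control).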

[1] = dose: 100.0 mg/kg/injection, schedule: Q04DX003 (ip), vehicle: saline with Tween-80
[2] = dose: 400.0 mg/kg/injection, schedule: Q04DX002 (ip), vehicle: saline with Tween-80
[3] = dose: 100.0 mg/kg/injection, schedule: Q04DX003 (ip), vehicle: saline
[4] = dose: 200.0 mg/kg/injection, schedule: Q04DX003 (ip), vehicle: saline
[5] = dose: 400.0 mg/kg/injection, schedule: Q04DX003 (ip), vehicle: saline
[6] = dose: 50.0 mg/kg/injection, schedule: Q01DX009 (ip), vehicle: saline
[7] = dose: 100.0 mg/kg/injection, schedule: Q04DX002 (ip), vehicle: Klucel (hydroxypropylcellulose) (HPC)
[8] = dose: 200.0 mg/kg/injection, schedule: Q04DX002 (ip), vehicle: Klucel (hydroxypropylcellulose) (HPC)
[9] = dose: 100.0 mg/kg/injection, schedule: Q01DX009 (ip), vehicle: Klucel (hydroxypropylcellulose) (HPC)
[10] = dose: 200.0 mg/kg/injection, schedule: Q01DX009 (ip), vehicle: Klucel (hydroxypropylcellulose) (HPC)
[11] = dose: 400.0 mg/kg/injection, schedule: Q01DX009 (ip), vehicle: Klucel (hydroxypropylcellulose) (HPC)
[12] = dose: 100.0 mg/kg/injection, schedule: Q01DX009 (ip), vehicle: saline
[13] = dose: 200.0 mg/kg/injection, schedule: Q01DX009 (ip), vehicle: saline

What does the source list for `CCOC(=O)c1nc(SC)n(Cc2ccccc2)c1C(=O)OCC`?
T/C (dose: 25.0 mg/kg/injection, schedule: Q04DX002 (ip), vehicle: saline with Tween-80): 94 % of control and 103 % of control; T/C (dose: 50.0 mg/kg/injection, schedule: Q04DX002 (ip), vehicle: saline with Tween-80): 106 % of control and 91 % of control; T/C (dose: 100.0 mg/kg/injection, schedule: Q01DX001 (ip), vehicle: saline with Tween-80): 95 % of control and 98 % of control; T/C [1]: 99 % of control; T/C (dose: 200.0 mg/kg/injection, schedule: Q01DX001 (ip), vehicle: saline with Tween-80): 102 % of control and 91 % of control; T/C (dose: 200.0 mg/kg/injection, schedule: Q04DX003 (ip), vehicle: saline with Tween-80): 100 % of control; T/C (dose: 400.0 mg/kg/injection, schedule: Q01DX001 (ip), vehicle: saline with Tween-80): 95 % of control and 91 % of control; T/C [2]: 94 % of control and 101 % of control; T/C (dose: 400.0 mg/kg/injection, schedule: Q04DX003 (ip), vehicle: saline with Tween-80): 99 % of control

How did the T/C [3] turn out when `CNC(=O)c1ccccc1` was run?
Its T/C is 104 % of control.

What about the T/C [4] of the same molecule?
Its T/C is 98 % of control.

And the T/C [5]?
The T/C was 98 % of control.

For `NNc1ncccn1`, which T/C (dose: 5.0 mg/kg/injection, schedule: Q01DX001 (ip), vehicle: saline) is on record?
The T/C was 102 % of control.

What about the T/C (dose: 10.0 mg/kg/injection, schedule: Q01DX001 (ip), vehicle: saline) of the same molecule?
Its T/C is 109 % of control.

What about the T/C (dose: 20.0 mg/kg/injection, schedule: Q01DX001 (ip), vehicle: saline) of the same molecule?
Its T/C is 113 % of control.

With `CNNC(=O)Cc1ccc(OC)cc1` as the molecule, how does the T/C [6] read?
Its T/C is 100 % of control.

What about the T/C (dose: 100.0 mg/kg/injection, schedule: Q01DX001 (ip), vehicle: saline) of the same molecule?
The T/C was 100 % of control.

What about the T/C (dose: 200.0 mg/kg/injection, schedule: Q01DX001 (ip), vehicle: saline) of the same molecule?
The T/C was 113 % of control.

How did the T/C (dose: 100.0 mg/kg/injection, schedule: Q04DX003 (ip), vehicle: Klucel (hydroxypropylcellulose) (HPC)) turn out when `CC1CCC(C(C)C)C(NCc2ccccc2O)C1` (centres undefined) was run?
Its T/C is 89 % of control.

For `Cc1c(C(N)=O)no[n+]1[O-]`, which T/C [7] is on record?
The T/C was 87 % of control.

What about the T/C [8] of the same molecule?
The T/C was 109 % of control.

How did the T/C [9] turn out when `CCOC(=O)C1CCc2c(ccc3ccccc23)N1C(C)=O` (centres undefined) was run?
Its T/C is 94 % of control.

And the T/C [10]?
The T/C was 88 % of control.

What about the T/C [11] of the same molecule?
Its T/C is 91 % of control.

Which results are given for `CCCC(CC)C(=O)OCCCSCCCOC(=O)C(CC)CCC` (centres undefined)?
T/C (dose: 222.0 mg/kg/injection, schedule: Q01DX Z (ip), vehicle: methylcellulose (MC)): 92 % of control; T/C (dose: 333.0 mg/kg/injection, schedule: Q01DX Z (ip), vehicle: methylcellulose (MC)): 94 % of control; T/C (dose: 500.0 mg/kg/injection, schedule: Q01DX Z (ip), vehicle: methylcellulose (MC)): 87 % of control

Which T/C [7] does the source give for `Cc1ccc(C(=O)/C=C\c2ccc(Cl)c(Cl)c2)cc1` here?
The T/C was 92 % of control.

What about the T/C [8] of the same molecule?
The T/C was 106 % of control.

And the T/C (dose: 400.0 mg/kg/injection, schedule: Q04DX002 (ip), vehicle: Klucel (hydroxypropylcellulose) (HPC))?
The T/C was 95 % of control.

How did the T/C [12] turn out when `CC1=C(/C=C/C(C)=N/NC(N)=O)C(C)(C)CCC1` was run?
Its T/C is 100 % of control.

What about the T/C [3] of the same molecule?
The T/C was 94 % of control.

And the T/C [13]?
The T/C was 100 % of control.

What about the T/C [4] of the same molecule?
Its T/C is 102 % of control.

And the T/C [5]?
The T/C was 96 % of control.

How did the T/C (dose: 75.0 mg/kg/injection, schedule: Q04DX003 (ip), vehicle: saline) turn out when `O=C(OC(=O)c1ccncc1)c1ccncc1` was run?
The T/C was 94 % of control.

What about the T/C (dose: 150.0 mg/kg/injection, schedule: Q04DX003 (ip), vehicle: saline) of the same molecule?
Its T/C is 92 % of control.

What about the T/C (dose: 300.0 mg/kg/injection, schedule: Q04DX003 (ip), vehicle: saline) of the same molecule?
The T/C was 110 % of control.

With `CC(O)(CCl)C(=O)O` (centres undefined) as the molecule, how does the T/C [3] read?
The T/C was 96 % of control.

What about the T/C [4] of the same molecule?
Its T/C is 98 % of control.

What about the T/C [5] of the same molecule?
Its T/C is 96 % of control.

With `CCCC(=O)OCC1OC(n2ccc(N)nc2=O)C(O)C1OC(=O)CCC` (centres undefined) as the molecule, how does the T/C (dose: 60.0 mg/kg/injection, schedule: Q01DX005 (ip), vehicle: Klucel (hydroxypropylcellulose) (HPC)) read?
Its T/C is 183 % of control.

And the T/C (dose: 90.0 mg/kg/injection, schedule: Q01DX005 (ip), vehicle: Klucel (hydroxypropylcellulose) (HPC))?
The T/C was 152 % of control.

And the T/C (dose: 134.0 mg/kg/injection, schedule: Q01DX005 (ip), vehicle: Klucel (hydroxypropylcellulose) (HPC))?
Its T/C is 158 % of control.

What about the T/C (dose: 200.0 mg/kg/injection, schedule: Q01DX005 (ip), vehicle: Klucel (hydroxypropylcellulose) (HPC)) of the same molecule?
The T/C was 162 % of control and 170 % of control.

`CCCC[CH2][Sn]([CH2]CCCC)[CH2]CCCC.CCCC[CH2][Sn]([CH2]CCCC)[CH2]CCCC` was tested. Which T/C (dose: 100.0 mg/kg/injection, schedule: Q04DX002 (sc), vehicle: olive oil, sesame oil, peanut oil) did it give?
Its T/C is 115 % of control.

And the T/C (dose: 200.0 mg/kg/injection, schedule: Q04DX002 (sc), vehicle: olive oil, sesame oil, peanut oil)?
The T/C was 99 % of control.

What about the T/C (dose: 400.0 mg/kg/injection, schedule: Q04DX002 (sc), vehicle: olive oil, sesame oil, peanut oil) of the same molecule?
Its T/C is 105 % of control.

What does the source list for `O=C(O)c1cc(CBr)ccc1CBr`?
T/C (dose: 6.25 mg/kg/injection, schedule: Q01DX009 (ip), vehicle: saline with Tween-80): 100 % of control; T/C (dose: 6.25 mg/kg/injection, schedule: Q04DX003 (ip), vehicle: saline with Tween-80): 93 % of control; T/C (dose: 12.5 mg/kg/injection, schedule: Q01DX009 (ip), vehicle: saline with Tween-80): 103 % of control; T/C (dose: 12.5 mg/kg/injection, schedule: Q04DX003 (ip), vehicle: saline with Tween-80): 94 % of control; T/C (dose: 25.0 mg/kg/injection, schedule: Q01DX009 (ip), vehicle: saline with Tween-80): 95 % of control; T/C (dose: 25.0 mg/kg/injection, schedule: Q04DX003 (ip), vehicle: saline with Tween-80): 102 % of control

What does the source list for `O=C(CCl)OCC1CC2C=CC1C2` (centres undefined)?
T/C (dose: 222.0 mg/kg/injection, schedule: Q01DX Z (ip), vehicle: saline): 98 % of control; T/C (dose: 333.0 mg/kg/injection, schedule: Q01DX Z (ip), vehicle: saline): 100 % of control; T/C (dose: 500.0 mg/kg/injection, schedule: Q01DX Z (ip), vehicle: saline): 96 % of control

`CC[N+]12CC=C3COC(=O)C(C)(O)C(C)(O)C(C)C(=O)OC(CC1)C32` (centres undefined) was tested. Which T/C [6] did it give?
Its T/C is 92 % of control.

What about the T/C [12] of the same molecule?
The T/C was 97 % of control.

And the T/C [13]?
Its T/C is 92 % of control.

Which T/C (dose: 50.0 mg/kg/injection, schedule: Q01DX009 (ip), vehicle: other) does the source give for `CCCOP(=S)(NCCCOC)OCCC` here?
The T/C was 94 % of control.

And the T/C (dose: 50.0 mg/kg/injection, schedule: Q04DX003 (ip), vehicle: other)?
Its T/C is 95 % of control.

And the T/C (dose: 100.0 mg/kg/injection, schedule: Q01DX001 (ip), vehicle: other)?
The T/C was 96 % of control.

What about the T/C (dose: 100.0 mg/kg/injection, schedule: Q01DX009 (ip), vehicle: other) of the same molecule?
The T/C was 100 % of control.

And the T/C (dose: 100.0 mg/kg/injection, schedule: Q04DX003 (ip), vehicle: other)?
Its T/C is 95 % of control.

What about the T/C (dose: 200.0 mg/kg/injection, schedule: Q01DX001 (ip), vehicle: other) of the same molecule?
The T/C was 102 % of control.

What about the T/C (dose: 200.0 mg/kg/injection, schedule: Q01DX009 (ip), vehicle: other) of the same molecule?
The T/C was 94 % of control.

And the T/C (dose: 200.0 mg/kg/injection, schedule: Q04DX003 (ip), vehicle: other)?
The T/C was 97 % of control.

What does the source list for `c1ccc(CCc2ccncc2)cc1`?
T/C (dose: 100.0 mg/kg/injection, schedule: Q01DX009 (ip), vehicle: saline with Tween-80): 87 % of control; T/C (dose: 200.0 mg/kg/injection, schedule: Q01DX009 (ip), vehicle: saline with Tween-80): 88 % of control; T/C (dose: 400.0 mg/kg/injection, schedule: Q01DX009 (ip), vehicle: saline with Tween-80): 86 % of control

Which results are given for `c1ccc(C2=NC2c2ccccc2)cc1` (centres undefined)?
T/C (dose: 25.0 mg/kg/injection, schedule: Q01DX001 (ip), vehicle: Klucel (hydroxypropylcellulose) (HPC)): 97 % of control; T/C (dose: 50.0 mg/kg/injection, schedule: Q01DX001 (ip), vehicle: Klucel (hydroxypropylcellulose) (HPC)): 96 % of control; T/C (dose: 100.0 mg/kg/injection, schedule: Q01DX001 (ip), vehicle: Klucel (hydroxypropylcellulose) (HPC)): 105 % of control

Which T/C [1] does the source give for `CN(C)c1ncnc2nsnc12` here?
Its T/C is 100 % of control.

With `Cc1ccccc1NC(=O)Nc1ccc(Nc2ccccc2)cc1` as the molecule, how does the T/C [9] read?
Its T/C is 97 % of control.

And the T/C [10]?
The T/C was 91 % of control.

And the T/C [11]?
The T/C was 100 % of control.

Which T/C (dose: 100.0 mg/kg/injection, schedule: Q04DX002 (ip), vehicle: saline with Tween-80) does the source give for `O=C(COc1ccc(Cl)cc1)NC(CO)(CO)CO` here?
Its T/C is 103 % of control.

What about the T/C (dose: 200.0 mg/kg/injection, schedule: Q04DX002 (ip), vehicle: saline with Tween-80) of the same molecule?
The T/C was 103 % of control.

And the T/C [2]?
Its T/C is 103 % of control.

What does the source list for `O=C(c1ccccc1)C1CCC(C(=O)c2ccccc2)C1=O` (centres undefined)?
T/C (dose: 100.0 mg/kg/injection, schedule: Q01DX001 (ip), vehicle: carboxymethylcellulose (CMC)): 98 % of control; T/C (dose: 200.0 mg/kg/injection, schedule: Q01DX001 (ip), vehicle: carboxymethylcellulose (CMC)): 98 % of control; T/C (dose: 400.0 mg/kg/injection, schedule: Q01DX001 (ip), vehicle: carboxymethylcellulose (CMC)): 98 % of control
